This note sets out measurements from patent US20240407363A1 (priority 2021, published 2024).

One assay deals with X. perforans GEV-485. The assay can be described thus: Greenhouse in planta experiments, hexanoic acid soil drench, tomato bacterial spot ('Bonnie Best'). The class given is in vivo. Here is the method: Hexanoic acid (Hx) (>99%, Sigma Aldrich) was tested for its effect on the management of bacterial leaf spot of tomato. Stock solutions of Hx (1.0×10^4 mg/L) were prepared with sterile distilled water (SDW) and stored at 4° C. for further dilutions. Copper treatment suspensions were prepared using Kocide® 3000 (DuPont, Wilmington DE) that contains 30% metallic Cu in the form of copper hydroxide [Cu(OH)2]. For greenhouse experiments, Kocide® 3000 at the rate of 2.1 g/L and Penncozeb 75DF (United Phosphorus Inc., King of Prussia, PA) at the rate of 1.2 g/L in SDW were prepared.
The plants were then moved to a growth chamber with temperature at 28° C., 12 h photoperiod and 80% relative humidity. Fifty mL of Hx at the tested rates were applied to 3-4 weeks old plants by soil drench, 4 and 2 days prior to bacterial inoculation to prime the plants and induce basal plant defense. Kocide® 3000 and a mixture of Kocide® 3000+Penncozeb® were sprayed on the tomato plants until runoff and allowed to air dry for 4 h before bacterial inoculation. Three plants were sprayed with SDW only, as a negative control. […] Disease severity and phytotoxicity were evaluated every other day using the Horsfall-Barratt scale (Horsfall and Barratt, 1945), starting from 3 days up to 20 days post inoculation. […]

Another assay deals with Xanthomonas perforans. The assay can be described thus: Field trials on hexanoic acid, bacterial spot of tomato (cv. Red bounty). The class given is in vivo. To be noted: for AUDPC / BS last rating of bacterial spot severity / YIELD: cv. Red bounty, ManKocide 2.1 mg/ml foliar spray, hexanoic acid 0.5 mg/ml drench (50 ml/plant). Here is the method: Table 3 notes: Data from 2 repeated field experiments: BS1/BS2=bacterial disease severity in Exp. 1/Exp. 2; AUDPC1/AUDPC2=area under the disease progress curve in Exp. 1/Exp. 2; YIELD 1/YIELD 2=fruit yield (Kg/plant) in Exp/1/Exp.2; KOCIDER=Kocide® 3000 (Cu bactericide) at 1.75 lb/acre (=2.1 mg/mL) by sprays; MANKO=Mankocide® (Cu+mancozeb) at 1.75 lb/acre by foliar spray; HEXANO=hexanoic acid at 0.5 mg/mL (=500 mg/L) by root drench weekly for a total of 8 weeks.
It is noted regarding the table above that: (1) data in this table were from 2 repeated field experiments, whereas those in FIG. 9 were from a greenhouse preliminary test; and (2) in the field experiments, Hx at 500 mg/L was weekly applied as soil drench for a total of 8 weeks. In the greenhouse test (FIG. 9), Hx at 512 mg/L was applied only one time as soil drench at 1, 3, or 7 days prior to the bacterial inoculation, respectively.
Tomato seedlings were transplanted in fall for the first trial (trial 1) and spring for the second trial (trial 2). Treatments were started about two weeks after transplanting following weekly applications for a total of eight weeks. Tomato plants were inoculated with the pathogen Xanthomonas perforans (1-5×10^6 cfu/ml) the following day in the afternoon after the third treatment. Disease severity was rated weekly when bacterial spot symptoms were observed, and area under the disease progress curve (AUDPC) was calculated. Tomato fruit were harvested two to three times for each trial and graded according to the USDA standard. Total fruit yield in each treatment and the untreated control (CK) was subjected to statistical analysis using SAS (version 9.2, SAS Institute Inc., Cary, NC, USA). Disease severity of last rating and AUDPC from each trial were analyzed and presented.
Hexanoic acid at 0.5 mg/ml was drenched (50 ml/plant) to the base of each plant. This chemical was evaluated in two independent trials. Tomato cultivar was ‘Red bounty’.

Assay [1] relates to X. perforans strain GEV-485. The assay can be described thus: In vitro antibacterial activity at different time points (viable colony counts). The class given is cell-based. How it is done:
X. perforans strain GEV-485, a copper-resistant strain, was used in this study to evaluate the antibacterial activity of Hx. Working cultures of GEV-485 were retrieved from −80° C. storage vials containing bacterial suspensions in 30% glycerol (v/v). Bacterial cells were taken from the storage, streaked on nutrient agar (NA; Difco™ Sparks, MD) plates and incubated for 48 h at 28° C. and single colonies were picked and streaked on NA plates to ensure bacterial purity for further cultures. NA amended with copper (II) sulfate pentahydrate (CuSO4·5H2O) (Fisher Scientific-Hampton, NH) at 20 ppm, was used as copper tolerance selective agent. To prepare the bacterial inoculum, a single bacterial colony was streaked on NA and incubated for 24 h at 28° C. From those plates, loops of bacterial cells were collected and resuspended in SDW amended with 0.01 M MgSO4. The bacterial concentration was adjusted to ˜5.0×10^8 colony-forming units (CFU)/mL based on an optical density (OD) of 0.3 at 600 nm. The in vitro studies were conducted to determine the minimum inhibitory concentration (MIC), minimum bactericidal concentration (MBC), and the antibacterial activity at different time points.
For the antibacterial activity study of Hx at different time points, the bacterial suspension was prepared as described above. […] After incubation, total viable colonies for each tube were counted. […]

The mark [2] stands for this setting: 0.5 mg/ml applied as root drench (50 ml/plant).
[3] abbreviates: Experiment 1, Kocide 3000 1.75 lb/acre (=2.1 mg/mL) sprays, Mankocide 1.75 lb/acre foliar spray, hexanoic acid 0.5 mg/mL root drench weekly for 8 weeks.
The mark [4] stands for this setting: Experiment 2, Kocide 3000 1.75 lb/acre (=2.1 mg/mL) sprays, Mankocide 1.75 lb/acre foliar spray, hexanoic acid 0.5 mg/mL root drench weekly for 8 weeks.

Each structure is given as a SMILES string. “Also recorded” adds a separate entry of the source.

In the case of `CCCCCC(=O)O` [Hexanoic acid, hexanoic acid], in the assay with X. perforans GEV-485 (512 mg/L applied only once as soil drench 1, 3, and 7 days prior to the bacterial inoculation), the “bacterial spot disease (preliminary AUDPC, FIG. 9) compared to the control (UTC)” value is on record as “did not appear to significantly reduce the bacterial spot disease”. Besides, in the assay on X. perforans GEV-485 (different treatment concentrations, application two days prior to the bacterial inoculation, two-week rating period), the “disease severity (AUDPC, FIG. 10) compared to the control (UTC)” value is “significantly (P<0.05) lower disease severity; also recorded: statistically significant (p<0.05) lower disease severity”. In the assay on Xanthomonas perforans (setting [2]), the “effect on disease reduction compared to ManKocide at the label rate of 2.1 mg/ml” value is listed as “even better than ManKocide®”; the “marketable tomato fruit yield compared to controls” value was “greater than the untreated control (CK) and ManKocide® in one of the two independent trials”. In the assay on Xanthomonas perforans (0.5 mg/ml applied as root drench (50 ml/plant), Homestead, FL 2020-2021), the “bacterial spot disease severity and AUDPC compared to the untreated control (CK)” value is “significantly (P<0.05) reduced bacterial spot disease severity at the last rating and the overall disease progress”. Further, in the assay on Xanthomonas perforans (setting [3]), the “AUDPC1 area under the disease progress curve” value was found to be 95.93 c, the “BS1 bacterial disease severity” value is on record as 10.8 d % and the YIELD1 fruit yield is on record as 8.83 a Kg/plant. Besides, in the assay with Xanthomonas perforans (setting [4]), the “AUDPC2 area under the disease progress curve” value was found to be 390.1 c, the “BS2 bacterial disease severity” value amounted to 41.3 c % and the YIELD2 fruit yield amounted to 2.76 a Kg/plant. For the same molecule, in the assay with Xanthomonas perforans (Trial 1), the AUDPC was determined as 95.9 c, the “BS last rating of bacterial spot severity” value was 10.8 c % and the YIELD came out at 8.83 a kg/plant. In the assay on Xanthomonas perforans (Trial 2), the AUDPC is listed as 390.1 c, the “BS last rating of bacterial spot severity” value turned out to be 41.3 b % and the YIELD is listed as 2.76 a kg/plant. Further, in assay [1] (at 256 mg/L or higher concentrations, after 4 hours of treatment), the “colony growth after treatment” value was “no colonies grew”. The “bactericidal effect over time” value in assay [1] (higher concentrations of hexanoic acid) is “bactericidal effects within an hour”.
